Molecules are shown by their SMILES.

Assay [1] has as its system MCL-1 mRNA. The assay can be described thus: MCL-1 mRNA expression in D556 medulloblastoma cells (Affymetrix U133+2.0 gene chip). In kind it is cell-based. The conditions noted are these: 19 hours. The procedure:
(§1) FIG. 3 illustrates Mcl-1 mRNA expression levels in medulloblastoma cells treated with CX-3543. The cells were treated at 0.1 and 1 μM CX-3543 for 19 hours, as measured by Affymetrix U133+2.0 47,000 gene chip.
(§2) D556 medulloblastoma cells were exposed to 1 uM Compound A-1 for 19 hours. […] The level of apoptosis induced in D556 as measured by Annexin V staining was about 5.5-fold higher than in DMSO-treated cells, as compared to about 1.9-fold in DAOY cells. The relative amount of down-regulation of MCL-1 (approximately 14-fold compared to about 3.2-fold) correlates with the relative level of apoptosis induction (about 5.5-fold as compared to about 1.9-fold).

Assay [2] relates to MCL-1 mRNA. In words: MCL-1 mRNA expression in DAOY medulloblastoma cells. The conditions noted are these: 1 uM, 19 hours. In kind it is cell-based. The procedure: as §1, §2
The subject of assay [3] is extended MCL-1 sequence (insert 58). The assay can be described thus: Competition assay (Taq polymerase stop reaction as reporter), competitor extended MCL-1 sequence insert 58. In kind it is binding. The conditions noted are these: FIG. 2. The source says:
(§3) An example of an affinity competition assay, described hereafter, is useful for determining the relative binding affinities of a test molecule between different types of nucleic acid structures, using the ability of the test molecule to bind and stabilize a specific G-quadruplex structure in a Taq polymerase stop reaction utilized as a reporter system.
(§4) The assay first involves establishing the IC50 of a test molecule in the polymerase arrest assay described above using the fluorescent-labeled oligonucleotide primer. The IC50 concentration is defined as the concentration of test molecule required that yields a 1:1 ratio of quadruplex arrest to full-length product.
(§5) A competitor nucleic acid sequence is titrated into the reaction such that each individual reaction contains the test compound at it's IC50 concentration and an increasing concentration of competitor nucleic acid (increasing from zero). The competitor nucleic acid, may be a short duplex or single strand oligonucleotide, a plasmid DNA sequence, an RNA sequence, or a nucleic acid sequence capable of forming a secondary structure, such as a G-quadruplex. […] The decrease in quadruplex arrest product, relative to the full-length product is measured as a function of concentration of added competitor nucleic acid. Thus the relative binding affinities to different competitor nucleic acid structures can be determined graphically. […]

For assay [4], the system named is MCL-1 wildtype quadruplex sequence (MCL-wt). In words: Competition assay (Taq polymerase stop reaction as reporter), competitor MCL-1 wildtype quadruplex. In kind it is binding. The conditions noted are these: test compound at its IC50 concentration.
Description: as §3, §4, §5

For assay [5], the system named is D556 medulloblastoma cells. The assay can be described thus: Apoptosis induction by Annexin V staining in D556 cells. In kind it is cell-based. The procedure:
(§6) FIG. 4 depicts the induction of apoptosis following treatment with CX-3543.
as §2

The test system of assay [6] is DAOY medulloblastoma cells. The assay can be described thus: Apoptosis induction by Annexin V staining in DAOY cells. In kind it is cell-based. The procedure:
as §6, §2

Assay [7] relates to extended MCL-1 sequence (insert 46). In words: Competition assay (Taq polymerase stop reaction as reporter), competitor extended MCL-1 sequence insert 46. The assay is classed as binding. The following applies: FIG. 2.
Description: as §3, §4, §5

The next assay has as its system MCL-1 protein. The assay can be described thus: MCL-1 protein levels in cells contacted with compound. In kind it is cell-based. The following applies: expected from the mRNA and apoptosis results. Here is the method:
as §2

As for `CN1CCC[C@H]1CCNC(=O)c1cn2c3c(c(N4CCC(c5cnccn5)C4)c(F)cc3c1=O)Oc1cc3ccccc3cc1-2` (stereo partly shown) [Compound A-1], the “rank of Mcl-1 among genes with statistically significant change relative to DMSO control” value with MCL-1 mRNA [1] (D556 cells, 1 μM, out of more than 500 genes) was “eighth most highly down-regulated gene”. The “MCL-1 mRNA down-regulation” value in the assay with MCL-1 mRNA [1] (D556 medulloblastoma cells, 1 uM) is reported as “approximately 14 fold”; in the assay on MCL-1 mRNA [2] it was “approximately 3.2 fold”. Further, the “binding to extended MCL-1 sequence insert 58 compared to the wildtype sequence” value in assay [3] is listed as “comparably higher”. Moreover, the “binding to the MCL-1 sequence shown in FIG. 2” value in assay [4] was “binds”. Further, the entries for the “level of apoptosis induced, relative to DMSO-treated cells” value in assay [5] (D556 cells) and in assay [6] were “about 5.5 fold” and “about 1.9 fold”, respectively. Besides, the “apoptosis induction, D556 compared with DAOY” value in assay [5] (FIG. 4) is “greater effect of CX-3543 on D556 than on DAOY”. Besides, the “binding to extended MCL-1 sequence insert 46 compared to the wildtype sequence” value in assay [7] is reported as “comparably higher”. Besides, the MCL-1 protein levels result in the assay with MCL-1 protein is listed as “decreased”.

The values are drawn from US20060286575A1, “MCL-1 quadruplex nucleic acids and uses thereof” (Cylene Pharmaceuticals, Inc., priority 2005, published 2006).
